Measurements: ChEMBL document CHEMBL3885861, “Open TG-GATES”

Species: Rattus norvegicus
Assay: Open TG-GATES - Regimen: Daily Repeat
Type: toxicity, organism-based, Sprague-Dawley
Design: regimen Daily Repeat, gender Male, age 6 weeks
Conditions: in vivo, po, 50 mg/kg, route gavage, dose level Low; for APTT / Bas / Eos / Fbg / Hb / Ht / Lym / MCH / MCHC / MCV / Mono / Neu / PT / Plat / RBC / Ret / WBC: tissue Blood; for KIDNEY_L / KIDNEY_R / KIDNEY_TOTAL: tissue Kidney; for LIVER: tissue Liver; for A/G / ALP / ALT / AST / BUN / CRE / Ca / Cl / DBIL / GLC / IP / K / LDH / Na / PL / RALB / TBIL / TC / TG / TP / gamma-GTP: tissue Plasma

Work on CN1C(=O)CCS(=O)(=O)C1c1ccc(Cl)cc1 (configuration not stated) [CHLORMEZANONE] yielded a TERMINAL_BW (72 h, time 3 day) of 226.8 g, an APTT (72 h, time 3 day) of 15.5 s and a Bas (72 h, time 3 day) of 0%. The Eos (72 h, time 3 day) was 1%, the Fbg (72 h, time 3 day) was 275.6 mg/dL and the Hb (72 h, time 3 day) was 13.5 g/dL. The Ht (72 h, time 3 day) was 40.1%, the Lym (72 h, time 3 day) was 75.2% and the MCH (72 h, time 3 day) was 22 pg. For the same compound, the MCHC (72 h, time 3 day) was 33.8%, the MCV (72 h, time 3 day) was 65.1 fL and the Mono (72 h, time 3 day) was 2.8%. For the same compound, the Neu (72 h, time 3 day) was 20.6%, the PT (72 h, time 3 day) was 12 s and the Plat (72 h, time 3 day) was 108.6 x10_4/uL. It also gave an RBC (72 h, time 3 day) of 616.2 x10_4/ul, a Ret (72 h, time 3 day) of 6.5% and a WBC (72 h, time 3 day) of 81.9 x10_2/uL. The KIDNEY_L (72 h, time 3 day) was 0.9 g, the KIDNEY_R (72 h, time 3 day) was 0.9 g and the KIDNEY_TOTAL (72 h, time 3 day) was 1.8 g. For the same compound, the LIVER (72 h, time 3 day) was 11.1 g, the A/G (72 h, time 3 day) was 0.9 and the ALP (72 h, time 3 day) was 1849 IU/L. It also gave an ALT (72 h, time 3 day) of 50.8 IU/L, an AST (72 h, time 3 day) of 75.8 IU/L and a BUN (72 h, time 3 day) of 15.6 mg/dL. The CRE (72 h, time 3 day) was 0.2 mg/dL, the Ca (72 h, time 3 day) was 11 mg/dL and the Cl (72 h, time 3 day) was 107.2 meq/L. The DBIL (72 h, time 3 day) was 0.012 mg/dL, the GLC (72 h, time 3 day) was 188.8 mg/dL and the IP (72 h, time 3 day) was 7.5 mg/dL. It also gave a K (72 h, time 3 day) of 4.3 meq/L, an LDH (72 h, time 3 day) of 64.8 IU/L and a Na (72 h, time 3 day) of 143.8 meq/L. For the same compound, the PL (72 h, time 3 day) was 136.4 mg/dL, the RALB (72 h, time 3 day) was 2.7 g/dL and the TBIL (72 h, time 3 day) was 0.024 mg/dL. It also gave a TC (72 h, time 3 day) of 78.4 mg/dL, a TG (72 h, time 3 day) of 73.2 mg/dL and a TP (72 h, time 3 day) of 5.8 g/dL. For the same compound, the gamma-GTP (72 h, time 3 day) was 1 IU/L, the TERMINAL_BW ([…], time 7 day) was 270.7 g and the TERMINAL_BW ([…], time 14 day) was 321.2 g. The TERMINAL_BW ([…], time 28 day) was 415.3 g, the APTT ([…], time 7 day) was 18.3 s and the Bas ([…], time 7 day) was 0%. For the same compound, the Eos ([…], time 7 day) was 0.8%, the Fbg ([…], time 7 day) was 275.8 mg/dL and the Hb ([…], time 7 day) was 13.2 g/dL. The Ht ([…], time 7 day) was 39.2%, the Lym ([…], time 7 day) was 79.2% and the MCH ([…], time 7 day) was 20.7 pg. For the same compound, the MCHC ([…], time 7 day) was 33.7%, the MCV ([…], time 7 day) was 61.4 fL and the Mono ([…], time 7 day) was 3%. It also gave a Neu ([…], time 7 day) of 16.2%, a PT ([…], time 7 day) of 11.8 s and a Plat ([…], time 7 day) of 118.3 x10_4/uL. It also gave an RBC ([…], time 7 day) of 639.2 x10_4/ul, a Ret ([…], time 7 day) of 6.4% and a WBC ([…], time 7 day) of 84.5 x10_2/uL. It also gave an APTT ([…], time 14 day) of 16.3 s, a Bas ([…], time 14 day) of 0% and an Eos ([…], time 14 day) of 0.8%. The Fbg ([…], time 14 day) was 282.2 mg/dL, the Hb ([…], time 14 day) was 14.6 g/dL and the Ht ([…], time 14 day) was 42.3%. For the same compound, the Lym ([…], time 14 day) was 83.4%, the MCH ([…], time 14 day) was 20.9 pg and the MCHC ([…], time 14 day) was 34.6%. It also gave an MCV ([…], time 14 day) of 60.3 fL, a Mono ([…], time 14 day) of 1.6% and a Neu ([…], time 14 day) of 13.6%. It also gave a PT ([…], time 14 day) of 11.7 s, a Plat ([…], time 14 day) of 118.8 x10_4/uL and an RBC ([…], time 14 day) of 700.4 x10_4/ul. The Ret ([…], time 14 day) was 4.7%, the WBC ([…], time 14 day) was 92.5 x10_2/uL and the APTT ([…], time 28 day) was 17.5 s. For the same compound, the Bas ([…], time 28 day) was 0%, the Eos ([…], time 28 day) was 1.2% and the Fbg ([…], time 28 day) was 274.6 mg/dL. The Hb ([…], time 28 day) was 15.1 g/dL, the Ht ([…], time 28 day) was 43% and the Lym ([…], time 28 day) was 77.6%. For the same compound, the MCH ([…], time 28 day) was 19.7 pg, the MCHC ([…], time 28 day) was 35.1% and the MCV ([…], time 28 day) was 56.2 fL. The Mono ([…], time 28 day) was 2.4%, the Neu ([…], time 28 day) was 18.6% and the PT ([…], time 28 day) was 11.7 s. The Plat ([…], time 28 day) was 106.6 x10_4/uL, the RBC ([…], time 28 day) was 765 x10_4/ul and the Ret ([…], time 28 day) was 2.5%. The WBC ([…], time 28 day) was 77 x10_2/uL, the KIDNEY_L ([…], time 7 day) was 1.1 g and the KIDNEY_R ([…], time 7 day) was 1.1 g. It also gave a KIDNEY_TOTAL ([…], time 7 day) of 2.1 g, a KIDNEY_L ([…], time 14 day) of 1.2 g and a KIDNEY_R ([…], time 14 day) of 1.2 g. For the same compound, the KIDNEY_TOTAL ([…], time 14 day) was 2.4 g, the KIDNEY_L ([…], time 28 day) was 1.3 g and the KIDNEY_R ([…], time 28 day) was 1.3 g. For the same compound, the KIDNEY_TOTAL ([…], time 28 day) was 2.7 g, the LIVER ([…], time 7 day) was 13.8 g and the LIVER ([…], time 14 day) was 16.1 g. The LIVER ([…], time 28 day) was 17.9 g, the A/G ([…], time 7 day) was 0.9 and the ALP ([…], time 7 day) was 1690.2 IU/L. For the same compound, the ALT ([…], time 7 day) was 50 IU/L, the AST ([…], time 7 day) was 68.4 IU/L and the BUN ([…], time 7 day) was 17.8 mg/dL. The CRE ([…], time 7 day) was 0.2 mg/dL, the Ca ([…], time 7 day) was 11.5 mg/dL and the Cl ([…], time 7 day) was 106.4 meq/L. It also gave a DBIL ([…], time 7 day) of 0.016 mg/dL, a GLC ([…], time 7 day) of 183.8 mg/dL and an IP ([…], time 7 day) of 7.2 mg/dL. It also gave a K ([…], time 7 day) of 4.4 meq/L, an LDH ([…], time 7 day) of 74.2 IU/L and a Na ([…], time 7 day) of 143.4 meq/L. It also gave a PL ([…], time 7 day) of 150.8 mg/dL, an RALB ([…], time 7 day) of 2.8 g/dL and a TBIL ([…], time 7 day) of 0.028 mg/dL. The TC ([…], time 7 day) was 84.2 mg/dL, the TG ([…], time 7 day) was 75.2 mg/dL and the TP ([…], time 7 day) was 6 g/dL. It also gave a gamma-GTP ([…], time 7 day) of 1 IU/L, an A/G ([…], time 14 day) of 0.9 and an ALP ([…], time 14 day) of 1402 IU/L. For the same compound, the ALT ([…], time 14 day) was 41 IU/L, the AST ([…], time 14 day) was 61 IU/L and the BUN ([…], time 14 day) was 14.2 mg/dL. For the same compound, the CRE ([…], time 14 day) was 0.2 mg/dL, the Ca ([…], time 14 day) was 11.3 mg/dL and the Cl ([…], time 14 day) was 106.8 meq/L. It also gave a DBIL ([…], time 14 day) of 0.008 mg/dL, a GLC ([…], time 14 day) of 180.4 mg/dL and an IP ([…], time 14 day) of 6.9 mg/dL. For the same compound, the K ([…], time 14 day) was 4.1 meq/L, the LDH ([…], time 14 day) was 65.8 IU/L and the Na ([…], time 14 day) was 143.6 meq/L. For the same compound, the PL ([…], time 14 day) was 140.8 mg/dL, the RALB ([…], time 14 day) was 2.8 g/dL and the TBIL ([…], time 14 day) was 0.056 mg/dL. The TC ([…], time 14 day) was 83 mg/dL, the TG ([…], time 14 day) was 87.6 mg/dL and the TP ([…], time 14 day) was 6.1 g/dL. For the same compound, the gamma-GTP ([…], time 14 day) was 1 IU/L, the A/G ([…], time 28 day) was 0.8 and the ALP ([…], time 28 day) was 1043 IU/L. The ALT ([…], time 28 day) was 40.6 IU/L, the AST ([…], time 28 day) was 60 IU/L and the BUN ([…], time 28 day) was 15.4 mg/dL. It also gave a CRE ([…], time 28 day) of 0.3 mg/dL, a Ca ([…], time 28 day) of 10.6 mg/dL and a Cl ([…], time 28 day) of 106.6 meq/L. The DBIL ([…], time 28 day) was 0.01 mg/dL, the GLC ([…], time 28 day) was 176.6 mg/dL and the IP ([…], time 28 day) was 5.8 mg/dL. For the same compound, the K ([…], time 28 day) was 4.2 meq/L, the LDH ([…], time 28 day) was 53 IU/L and the Na ([…], time 28 day) was 142.8 meq/L. The PL ([…], time 28 day) was 137.4 mg/dL, the RALB ([…], time 28 day) was 2.8 g/dL and the TBIL ([…], time 28 day) was 0.06 mg/dL. The TC ([…], time 28 day) was 71.2 mg/dL, the TG ([…], time 28 day) was 117 mg/dL and the TP ([…], time 28 day) was 6.3 g/dL. The gamma-GTP ([…], time 28 day) was 1 IU/L.
